Data on 23 compounds can be found in US20180099931A1 (AbbVie S.à.r.l., priority 2016, published 2018).

The target of this assay is T1, F508delCFTR (Homo sapiens, UniProt P13569, DEL508-508).
T1 construct: expressed in transfected cells; host or cells: CFBE41o- human lung-derived epithelial cells (CFBE4lo-F508delCFTR-HRP), doxycycline-inducible
In words: Cell Surface Expression-Horse Radish Peroxidase (CSE-HRP) Assay.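 For Maximum % activity (with co-corrector): co-corrector and positive control are both the same reference corrector at 2 µM.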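 For Maximum % activity (without co-corrector): percent of the 2 µM on-plate positive control corrector response above DMSO.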 The settings on record: for Maximum % activity (with co-corrector) / Emax: maximum at any tested concentration, normalized to on-plate positive control; for Emax: read-out: Maximum % activity (without co-corrector). The assay is classed as cell-based.

Setting [1] is: test compound without co-corrector, read-out: EC50 (without co-corrector).
Setting [2] is: with co-corrector (2 μM of 3-[(2R,4R)-4-({[1-(2,2-difluoro-1,3-benzodioxol-5-yl)cyclopropyl]carbonyl}amino)-7-methoxy-3,4-dihydro-2H-chromen-2-yl]benzoic acid), read-out: EC50 (with co-corrector).
[3] abbreviates: CSE-HRP, test compound without co-corrector, read-out: EC50 (without co-corrector).
Where [4] appears, read: CSE-HRP, with co-corrector (2 μM of 3-[(2R,4R)-4-({[1-(2,2-difluoro-1,3-benzodioxol-5-yl)cyclopropyl]carbonyl}amino)-7-methoxy-3,4-dihydro-2H-chromen-2-yl]benzoic acid), read-out: EC50 (with co-corrector).
[5] abbreviates: CSE-HRP, with co-corrector (2 μM).
Setting [6] is: test compound without co-corrector.
The mark [7] stands for this setting: with co-corrector (2 μM of 3-[(2R,4R)-4-({[1-(2,2-difluoro-1,3-benzodioxol-5-yl)cyclopropyl]carbonyl}amino)-7-methoxy-3,4-dihydro-2H-chromen-2-yl]benzoic acid).

Where two headings read alike, the source gives them in different places.

T1 sequence (P13569 with tags, fused parts or gaps DEL508-508): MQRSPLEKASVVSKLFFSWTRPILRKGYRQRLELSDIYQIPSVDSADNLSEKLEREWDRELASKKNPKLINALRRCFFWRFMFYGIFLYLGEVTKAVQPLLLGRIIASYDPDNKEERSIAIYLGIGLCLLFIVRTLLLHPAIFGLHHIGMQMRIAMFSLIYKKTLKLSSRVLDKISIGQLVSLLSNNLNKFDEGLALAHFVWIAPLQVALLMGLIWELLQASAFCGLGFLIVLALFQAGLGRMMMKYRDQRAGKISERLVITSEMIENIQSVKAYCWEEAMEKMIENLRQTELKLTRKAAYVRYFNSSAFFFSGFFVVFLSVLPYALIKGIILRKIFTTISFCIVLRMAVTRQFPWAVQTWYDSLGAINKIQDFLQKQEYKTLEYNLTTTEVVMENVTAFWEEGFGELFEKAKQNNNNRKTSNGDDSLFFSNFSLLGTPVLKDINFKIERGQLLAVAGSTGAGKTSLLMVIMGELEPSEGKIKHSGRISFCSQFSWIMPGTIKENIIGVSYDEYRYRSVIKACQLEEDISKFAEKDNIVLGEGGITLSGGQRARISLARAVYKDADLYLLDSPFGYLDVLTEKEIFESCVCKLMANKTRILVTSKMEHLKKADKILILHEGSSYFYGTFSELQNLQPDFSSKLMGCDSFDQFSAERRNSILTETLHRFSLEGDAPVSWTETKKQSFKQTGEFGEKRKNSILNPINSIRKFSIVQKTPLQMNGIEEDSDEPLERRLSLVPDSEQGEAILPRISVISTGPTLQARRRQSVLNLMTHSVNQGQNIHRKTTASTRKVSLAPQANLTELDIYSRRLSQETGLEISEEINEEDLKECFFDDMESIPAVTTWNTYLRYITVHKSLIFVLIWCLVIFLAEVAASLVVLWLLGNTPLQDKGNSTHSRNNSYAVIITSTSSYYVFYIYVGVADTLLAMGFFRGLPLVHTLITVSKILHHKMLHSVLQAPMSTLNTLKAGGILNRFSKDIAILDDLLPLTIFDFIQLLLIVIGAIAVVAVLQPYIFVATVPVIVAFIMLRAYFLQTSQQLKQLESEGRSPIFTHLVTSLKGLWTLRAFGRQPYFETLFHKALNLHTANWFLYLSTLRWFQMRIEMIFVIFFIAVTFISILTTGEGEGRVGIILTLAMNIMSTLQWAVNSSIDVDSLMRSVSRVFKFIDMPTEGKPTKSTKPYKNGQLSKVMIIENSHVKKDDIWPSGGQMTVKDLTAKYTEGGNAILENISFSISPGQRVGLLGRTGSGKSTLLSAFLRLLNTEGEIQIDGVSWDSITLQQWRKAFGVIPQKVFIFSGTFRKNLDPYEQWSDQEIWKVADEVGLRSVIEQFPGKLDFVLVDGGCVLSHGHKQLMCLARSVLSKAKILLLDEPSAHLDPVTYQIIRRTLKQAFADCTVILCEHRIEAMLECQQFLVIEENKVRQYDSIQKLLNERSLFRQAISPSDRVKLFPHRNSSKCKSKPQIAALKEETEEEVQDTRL

As usually defined, the EC50 is the concentration at which the effect is half-maximal. On to `COc1ccc(C(C)(C)C)cc1CN[C@H]1[C@H](C(C)(C)C)[C@@H](C(=O)O)N(C(=O)[C@H]2OCC[C@H]2c2ccccc2)[C@H]1c1ccccc1` (relative stereo) [Example I-179], for which the concentration for a half-maximal effect (EC50) under setting [1] lay in the range of 1000 to 10000 nM and the EC50 under setting [2] is 1000 to 10000 nM. The “Maximum % activity (with co-corrector)” value (with co-corrector (2 μM)) is on record as “+++ (≥350)”. Also, the Emax (without co-corrector) fell in the range of 100 to 200%.

Consider `CC(C)(C)[C@H]1[C@H](NCc2cc(C(F)(F)F)cc(C(F)(F)F)c2)[C@H](c2ccccc2)N(C(=O)C2CCCCC2)[C@@H]1C(=O)O` [II-108], for which the EC50 runs as follows: under setting [3], 1000 to 10000 nM; under setting [4], 1000 to 10000 nM. Further, the “Maximum % activity (with co-corrector)” value under setting [5] is listed as “+++ (≥350)”. Also, the Emax (CSE-HRP, without co-corrector) is below 100%.

Take `COc1cc(C(F)(F)F)ccc1CN[C@H]1[C@H](C(C)(C)C)[C@@H](C(=O)O)N(C(=O)c2cccnc2)[C@H]1c1ccccc1` [III-163]: under setting [6], the Emax was below 100%. For the same compound, the EC50 under setting [1] was in the range of 1000 to 10000 nM and the EC50 under setting [2] is 1000 to 10000 nM. Moreover, the “Maximum % activity (with co-corrector)” value (with co-corrector (2 μM)) was “++ (≥150 and <350)”.

Consider `C=CCOC(=O)N1[C@H](C(=O)O)[C@@H](C(C)(C)C)[C@H](NCc2cc(C(C)(C)C)ccc2OC)[C@@H]1c1ccccc1` [II-391], for which the Emax under setting [6] was above 200%. Besides, the EC50 reads like this: under setting [1], 1000 to 10000 nM; under setting [2], 1000 to 10000 nM. Besides, the “Maximum % activity (with co-corrector)” value under setting [7] is “+++ (≥350)”.

Take `COc1ccc(C(C)(C)C)cc1CN[C@H]1[C@H](C(C)(C)C)[C@@H](C(=O)O)N(C(=O)c2cnn(-c3ccccc3C)c2C)[C@H]1c1ccccc1` [II-228]: the EC50 was below 1000 nM under setting [3] and below 1000 nM under setting [4]. Under setting [5], the “Maximum % activity (with co-corrector)” value is “+++ (≥350)”. For the same compound, the Emax (CSE-HRP, without co-corrector) was above 200%.

In the case of `COc1ccc(C(C)(C)C)cc1CN[C@H]1[C@H](C(C)(C)C)[C@@H](C(=O)O)N(C(=O)C2C3CCCC32)[C@H]1c1cccnc1N(C)C` (some centres unmarked) [Example I-201], the EC50 runs as follows: under setting [1], 1000 to 10000 nM; under setting [2], below 1000 nM. Moreover, the “Maximum % activity (with co-corrector)” value (with co-corrector (2 μM)) is “+++ (≥350)”. Also, where the note is “without co-corrector”, the Emax is above 200%.

As to `COc1ncc(C(F)(F)F)cc1CN[C@H]1[C@H](C(C)(C)C)[C@@H](C(=O)O)N(C(=O)C2CCCCC2)[C@H]1c1ccc(F)cc1` [Example 26, (2S,3S,4S,5S)-3-tert-butyl-1-(cyclohexanecarbonyl)-5-(4-fluorophenyl)-4-({[2-methoxy-5-(trifluoromethyl)pyridin-3-yl]methyl}amino)pyrrolidine-2-carboxylic acid], the EC50 was below 1000 nM under setting [1] and below 1000 nM under setting [2]. Besides, the “Maximum % activity (with co-corrector)” value (with co-corrector (2 μM)) was “+++ (≥350)”. Under “without co-corrector”, the Emax lay in the range of 100 to 200%.

Consider `COc1nc(C(C)(C)C)ccc1CN[C@H]1[C@H](C(C)(C)C)[C@@H](C(=O)O)N(C(=O)[C@H]2CCCCO2)[C@H]1c1cccnc1N(C)C` [II-521], for which, under setting [6], the Emax was below 100%. The EC50 reads like this: under setting [1], 1000 to 10000 nM; under setting [2], 1000 to 10000 nM. Also, the “Maximum % activity (with co-corrector)” value under setting [7] was “++ (≥150 and <350)”.

Regarding `COc1ccc(C(C)(C)C)cc1CN[C@H]1[C@H](C(C)(C)C)[C@@H](C(=O)O)N(C(=O)c2cc3occc3n2C)[C@H]1c1ccccc1` [Example I-102], the EC50 was 1000 to 10000 nM under setting [1] and 1000 to 10000 nM under setting [2]. Besides, the “Maximum % activity (with co-corrector)” value (with co-corrector (2 μM)) is “+++ (≥350)”. Also, under “without co-corrector”, the Emax lay in the range of 100 to 200%.

Regarding `COc1ncc(C(F)(F)F)cc1CN[C@H]1[C@H](C(C)(C)C)[C@@H](C(=O)O)N(C(=O)OC(C)C)[C@H]1c1ccccc1` [II-425], under setting [6], the Emax was above 200%. Besides, the EC50 under setting [1] is 1000 to 10000 nM and the EC50 under setting [2] was 1000 to 10000 nM. Under setting [7], the “Maximum % activity (with co-corrector)” value was “+++ (≥350)”.

For `COc1ncc(C(F)(F)F)cc1CN[C@H]1[C@H](C(C)(C)C)[C@@H](C(=O)O)N(C(=O)OC(C)C)[C@H]1c1ccccc1C1CC1` [Example 91, (2S,3S,4S,5S)-3-tert-butyl-5-(2-cyclopropylphenyl)-4-({[2-methoxy-5-(trifluoromethyl)pyridin-3-yl]methyl}amino)-1-{[(propan-2-yl)oxy]carbonyl}pyrrolidine-2-carboxylic acid], the EC50 runs as follows: under setting [1], below 1000 nM; under setting [2], below 1000 nM. For the same compound, under “with co-corrector (2 μM)”, the “Maximum % activity (with co-corrector)” value is “+++ (≥350)”. Further, the Emax (without co-corrector) was above 200%.

For `COc1ncc(C2CCC2)cc1CN[C@H]1[C@H](C(C)(C)C)[C@@H](C(=O)O)N(C(=O)C2CCCC(C(F)(F)F)C2)[C@H]1c1ccccc1` (some centres unmarked) [III-209], the Emax under setting [6] was in the range of 100 to 200%. The EC50 is, setting by setting: under setting [1], 1000 to 10000 nM; under setting [2], below 1000 nM. Moreover, the “Maximum % activity (with co-corrector)” value (with co-corrector (2 μM)) is recorded as “+++ (≥350)”.

For the compound `COc1ccc(C(F)(F)F)cc1CN[C@@H]1[C@@H](C(C)(C)C)[C@H](C(=O)O)N(C(=O)C2CCOC(C)(C)C2)[C@@H]1c1ccccc1N(C)C` (mixture of isomers) [II-24], the EC50 runs as follows: under setting [3], 1000 to 10000 nM; under setting [4], 1000 to 10000 nM. In addition, the “Maximum % activity (with co-corrector)” value under setting [5] is recorded as “+++ (≥350)”. Also, the Emax (CSE-HRP, without co-corrector) was above 200%.

Consider `COc1ncc(C2CCC2)cc1CN[C@@H]1[C@@H](C(C)(C)C)[C@H](C(=O)O)N(C(=O)[C@@H]2CCCO2)[C@@H]1c1ccccc1Cl` [III-236], for which the Emax under setting [6] was below 100%. The EC50 runs as follows: under setting [1], 1000 to 10000 nM; under setting [2], 1000 to 10000 nM. Also, under “with co-corrector (2 μM)”, the “Maximum % activity (with co-corrector)” value is “++ (≥150 and <350)”.

On to `COc1ccc(C(C)(C)C)cc1CN[C@H]1[C@H](C(C)(C)C)[C@@H](C(=O)O)N(C(=O)[C@@H]2CCC[C@](C)(O)C2)[C@H]1c1ccccc1` [II-526], for which the Emax under setting [6] was 100 to 200%. Also, the EC50 is, setting by setting: under setting [1], 1000 to 10000 nM; under setting [2], 1000 to 10000 nM. For the same compound, under setting [7], the “Maximum % activity (with co-corrector)” value is listed as “+++ (≥350)”.

On to `COc1ncc(C2CCC2)cc1CN[C@H]1[C@H](C(C)(C)C)[C@@H](C(=O)O)N(C(=O)OC(C)C)[C@H]1c1ccccc1C(C)C` [Example 68, (2S,3S,4S,5S)-3-tert-butyl-4-{[(5-cyclobutyl-2-methoxypyridin-3-yl)methyl]amino}-1-{[(propan-2-yl)oxy]carbonyl}-5-[2-(propan-2-yl)phenyl]pyrrolidine-2-carboxylic acid], for which the EC50 under setting [1] lay within 1000 to 10000 nM and the EC50 under setting [2] was below 1000 nM. Further, where the note is “with co-corrector (2 μM)”, the “Maximum % activity (with co-corrector)” value is “+++ (≥350)”. For the same compound, the Emax (without co-corrector) is above 200%.

Turning to `CC(C)c1ccccc1[C@H]1[C@@H](NCc2cccc3c2OC(C)(C)C3)[C@H](C(C)(C)C)[C@@H](C(=O)O)N1C(=O)[C@@H]1CCCCO1` [Example I-306], the EC50 reads like this: under setting [3], below 1000 nM; under setting [4], below 1000 nM. For the same compound, the “Maximum % activity (with co-corrector)” value under setting [5] is listed as “+++ (≥350)”. Besides, where the note is “CSE-HRP, without co-corrector”, the Emax was above 200%.

For the compound `COc1ccc(C(C)(C)C)cc1CN[C@H]1[C@H](C(C)(C)C)[C@@H](C(=O)O)N(C(=O)[C@H]2CCCCO2)[C@H]1c1cccnc1N(C)C` [Example 19, (2S,3S,4S,5S)-3-tert-butyl-4-{[(5-tert-butyl-2-methoxyphenyl)methyl]amino}-5-[2-(dimethylamino)pyridin-3-yl]-1-[(2R)-oxane-2-carbonyl]pyrrolidine-2-carboxylic acid], the EC50 was 1000 to 10000 nM under setting [1] and 1000 to 10000 nM under setting [2]. In addition, the “Maximum % activity (with co-corrector)” value (with co-corrector (2 μM)) was “+++ (≥350)”. In addition, the Emax (without co-corrector) was above 200%.

As to `COc1cc(C(F)(F)F)ccc1CN[C@@H]1[C@@H](C(C)(C)C)[C@H](C(=O)O)N(C(=O)OC(C)C)[C@@H]1c1ccccc1N(C)C` (racemic) [II-57], the EC50 reads like this: under setting [3], 1000 to 10000 nM; under setting [4], 1000 to 10000 nM. Also, under setting [5], the “Maximum % activity (with co-corrector)” value is “+++ (≥350)”. Besides, the Emax (CSE-HRP, without co-corrector) was 100 to 200%.

In the case of `COc1ncc(C2CC2)cc1CN[C@H]1[C@H](C(C)(C)C)[C@@H](C(=O)O)N(C(=O)C2CCCCC2)[C@H]1c1ccccc1C` [Example 105, (2S,3S,4S,5S)-3-tert-butyl-1-(cyclohexanecarbonyl)-4-{[(5-cyclopropyl-2-methoxypyridin-3-yl)methyl]amino}-5-(2-methylphenyl)pyrrolidine-2-carboxylic acid], the EC50 is 1000 to 10000 nM under setting [1] and below 1000 nM under setting [2]. In addition, the “Maximum % activity (with co-corrector)” value (with co-corrector (2 μM)) was “+++ (≥350)”. The Emax (without co-corrector) was above 200%.

Regarding `CC(C)OC(=O)N1[C@H](c2ccccc2)[C@H](Nc2cccc(C(F)(F)F)n2)[C@@H](C(C)(C)C)[C@@H]1C(=O)O` (racemic) [III-44], under setting [6], the Emax was below 100%. In addition, the EC50 runs as follows: under setting [1], 1000 to 10000 nM; under setting [2], 1000 to 10000 nM. For the same compound, the “Maximum % activity (with co-corrector)” value under setting [7] was “++ (≥150 and <350)”.

As to `Cc1cc(C(F)(F)F)cc(N[C@H]2[C@H](C(C)(C)C)[C@@H](C(=O)O)N(C(=O)C3CCCCO3)[C@H]2c2cccnc2N(C)C)n1` (relative stereo) [II-504], the Emax under setting [6] was below 100%. For the same compound, the concentration giving a half-maximal response (EC50) was in the range of 1000 to 10000 nM under setting [1] and 1000 to 10000 nM under setting [2]. Further, the “Maximum % activity (with co-corrector)” value under setting [7] was “++ (≥150 and <350)”.

With `COc1cc(Cl)nc(N[C@@H]2[C@@H](C(C)(C)C)[C@H](C(=O)O)N(C(=O)C3CCCCC3)[C@@H]2c2ccccc2)n1` (racemic) [Example I-2], the EC50 is 1000 to 10000 nM under setting [1] and 1000 to 10000 nM under setting [2]. The “Maximum % activity (with co-corrector)” value (with co-corrector (2 μM)) is “+++ (≥350)”. The Emax (without co-corrector) was below 100%.
